How the values were obtained:
[1] = tested on: TLR2 ligand response of THP-1 promonocytic leukemia cell line; experiment: IL-8 release with TLR2 ligand plus suboptimal calcium flux agonist (FIG. 2); format: cell-based, human; conditions: THP-1 cells, suboptimal doses of ionophore; beyond cumulative individual responses (synergy)
Method: (§1) For example, human promonocytic THP-1 cells were incubated in the presence or absence of a suboptimal dose of the TLR2 ligand Pam2CSK4 and compared to similarly treated cells which also received suboptimal doses of ionophore (here: A23187 and ionomycin). […] In another example, NF-κB THP-1 cells (a THP-1-derived transfectant line harboring an NF-κB-driven luciferase expression cassette) were cultivated in the presence or absence of a suboptimal dose of the TLR2 ligand Pam2CSK4 and compared to similarly treated cells that also received suboptimal doses of various SERCA inhibitors.
Here, the ionophores A23187 and ionomycin, as well as the SERCA inhibitor thapsigargin synergize with the TLR2 ligand (Pam2CYS) in the activation of cytokine release from the human THP-1 promonocytic leukemia cell line. It should be especially noted that while the TLR2 ligand alone provided for about 5 ng/ml IL-8 response, addition of a suboptimal dose of the calcium flux agonists (e.g. 20 nM for thapsigargin, 316 nM for A23187, and 1 μM for ionomycin) produced more than 10-fold quantities of IL-8 production in the cells.

[2] = tested on: TLR (TLR2, TLR4, TLR5, TLR9) and NOD (NOD1, NOD2) family members; experiment: IL-8 production with TLR and NOD ligands plus suboptimal calcium flux agonist (FIGS. 3A-3E); format: cell-based, human; conditions: suboptimal doses: 20 nM thapsigargin, 316 nM A23187, 1 μM ionomycin, 10 μM cyclopiazonic acid, 31.6 μM DBHQ
Method: To investigate if that observation was also true for other pattern recognition receptors, and especially for TLR and NOD receptors and other ligands, the inventors tested numerous TLR and NOD receptors and various ligands.
The doses used in this experiment were 20 nM for thapsigargin, 316 nM for A23187, 1 μM for ionomycin, 10 μM for cyclopiazonic acid, and 31.6 μM for DBHQ.
Thus, a clear pattern of adjuvant activity of calcium flux agonists on the immune response, and especially on IL-8 production and NF-κB signaling is evident where the immune response is associated with a TLR- or NOD-mediated event.

[3] = tested on: S. aureus; experiment: Antibiotic sensitivity of S. aureus (OD600 / plating, FIGS. 9A-9C, 10); format: cell-based; conditions: log phase culture, OD600 over time, control kanamycin, 9B
Method: (§2) To determine the antibiotic sensitivity of S. aureus, cultures were grown overnight in tryptic soy broth (Cellgro). The resulting cultures were used to inoculate new cultures to ensure log phase growth prior to the start of the experiment. Once the bacteria had reached log phase the bacteria was diluted to the appropriate OD600˜0.05 and transferred to a 24-well plate. Compounds of interest were added and plates were incubated in a shaking incubator at 37° C. Aliquots were removed at various time points and their respective OD600 was measured using a BioTek Synergy2 microplate reader (BioTek, Winooski, Vt.). For wells whose turbidity was affected by the addition of the compounds of interest, aliquots were removed and plated on tryptic soy agar (Cellgro) and incubated overnight in a 37° C. incubated and counted the following day. Thus, it should be appreciated that the calcium flux agonists are effective in antimicrobial treatments via an indirect effect, most likely due to the enhanced production of IL-8 and increased NF-κB-driven transcription.

[4] = tested on: NF-κB THP-1 cells; experiment: NF-κB luciferase reporter synergy with TLR2 ligand and effect of Ca2+ modulating compounds (FIG. 4); format: cell-based, human; conditions: NF-κB THP-1 cells, suboptimal doses of SERCA inhibitors; beyond cumulative individual responses (synergy)
Method: as §1
The inventors further investigated if the nature of calcium flux was of significance as increased intracellular calcium may have different origins. To that effect, the inventors used various calcium signaling modulators to investigate the nature of the calcium flux and contribution. As can be readily taken from the data shown, extracellular calcium flux into the cell was critical for synergistic amplification of calcium signaling. More specifically, FIG. 4 illustrates the effects of different Ca^2+ modulating compounds on synergy with respect to NF-κB activation.

[5] = tested on: S. aureus; experiment: Killing of intracellular S. aureus by thapsigargin-treated differentiated THP-1 cells (FIG. 11); format: cell-based, human; conditions: 1 day with 20 nM thapsigargin vs vehicle, MOI of 10
Method: Briefly, a logarithmically dividing S. aureus was pelleted (2000×g for 10 min) and washed three times with Hank's Buffered Salt Solution (Cellgro). Concurrently, 2 day differentiated THP-1 cells (using 1 uM retinoic acid and 1 uM cholecalciferaol, Sigma-Aldrich) followed by 1 day with 20 nM thapsigargin or vehicle were collected and washed in Hank's Buffered Salt Solution. Differentiated cells were supplemented with 10% human serum (Innovative Research) and chilled on ice for 30 minutes. After the 30 minutes, S. aureus (MOI of 10) was added on ice for an additional 20 minutes to synchronize binding. Tubes were then incubated for 20 minutes at 37° C. After 20 minutes, 10 U/mL of lysostaphin (Sigma-Aldrich) was added to eliminate non-internalized bacteria. At the desired time points (20, 30, 60 minutes) 20 uL aliquots were removed and diluted into 10 mL of water. The dilution tubes were vortex and allowed to sit at room temp for 10 minutes to ensure proper lysis of the primary cells. After 10 minutes, the dilution tubes were centrifuged for 10 minutes at 2000×g and the remaining S. aureus was concentrated 20 fold and plated in triplicate on tryptic soy agar (Cellgro) and incubated overnight at 37° C. prior to colony enumeration.

[6] = target: sarco/endoplasmic reticulum Ca2+ ATPases (SERCA); conditions: cited from earlier work
[7] = tested on: methicillin-sensitive S. aureus (MSSA); experiment: Direct antibiotic activity in liquid culture assay, MSSA; format: cell-based
Method: Consistent with these and previous results regarding their inherent antibiotic activity against S. aureus, the inventors confirmed the direct antibiotic activity of both ionophores for direct antibiotic activity on methicillin-sensitive S. aureus (MSSA).
as §2

Row | Compound | amount of IL-8 produced with suboptimal TLR2 ligand Pam2CSK4 [1] | effect on IL-8 production with TLR and NOD ligands [2] | direct antibiotic effect against S. aureus [3] | amount of luciferase produced with suboptimal TLR2 ligand Pam2CSK4 [4] | antimicrobial activity of treated cells against internalized S. aureus [5] | affinity constant of Thapsigargin:SERCA binding [6] | direct antibiotic activity against MSSA [7]
1 | C[C@H](CCC(=O)O)C[C@H](C)C[C@H](C)C(=O)/C=C(\O)[C@H](C)C[C@H](C)C/C=C/[C@@H](C)[C@@H](O)[C@@H](C)[C@@H](O)C[C@@H]1CC[C@@](C)([C@H]2CC[C@@](C)([C@@H](C)O)O2)O1 [ionomycin] | significantly increased | synergistic effect | some direct antibiotic effect |  |  |  | 
2 | C/C=C(/C)C(=O)O[C@H]1C(C)=C2[C@H]([C@@H]1OC(=O)CCCCCCC)[C@@](C)(OC(C)=O)C[C@H](OC(=O)CCC)[C@@]1(O)[C@H]2OC(=O)[C@@]1(C)O [thapsigargin] |  | synergistic effect | lack of direct antibiotic effect | significantly increased | greater antimicrobial activity | low picomolar range | 
3 | CNc1ccc2oc(C[C@H]3O[C@@]4(CC[C@H]3C)O[C@H]([C@H](C)C(=O)c3ccc[nH]3)[C@H](C)C[C@H]4C)nc2c1C(=O)O [A23187, calcimycin] | significantly increased | synergistic effect | some direct antibiotic effect |  |  |  | the more active compound
